Common to all, as to assay type: in vivo
One test has as its system zinnia. The test can be described thus: Herbicidal activity, post-emergence stem and leaf spray, greenhouse: zinnia control. The note with it: visual, 0 = no control effect, 100% = complete killing. The protocol: (§1) Seeds of broadleaf weeds (zinnia and piemarker) or grassy weeds (green bristlegrass and barnyard grass) are respectively sown in a paper cup having a diameter of 7 cm and containing nutrient soil; after sowing, the seeds are covered with 1 cm of soil; the soil is pressed and watered, and then the seeds are cultivated in a greenhouse according to a conventional method; and stems and leaves are sprayed after 2-3 leaf stage of the weeds.
(§2) After the original medicinal acetone was dissolved, the test requires to use 1% of Tween 80 to stand in running water to prepare the solution to be tested with a required concentration. According to the design dose of the test, spray treatment was carried out on a track-type crop sprayer (designed and produced by British Engineer Research Ltd.) (spray pressure is 1.95 kg/cm^2, spray volume is 50 L/hm^2 and track speed is 1.48 km/h). The test was repeated for three times. The test material was treated and then placed in an operation hall. The medicinal liquid was naturally dried in the shade, and then was placed in a greenhouse and managed according to the conventional method, The response of the weeds to the drug was observed and recorded, After treatment, the control effects of the test drug on the weeds were visually inspected regularly, expressed by 0-100%. “0” represents no control effect and “100%” represents complete killing.
According to the above test method, part of the compounds of the formula I and KC are selected for activity test of controlling the zinnia.

Another test deals with barnyard grass. Nature of the test: Herbicidal activity, post-emergence stem and leaf spray, greenhouse: barnyard grass control. The protocol:
as §1, §2
According to the above test method, part of the compounds of the formula I and KC are selected for the activity test of controlling the barnyard grass.

A further test relates to piemarker. The test can be described thus: Herbicidal activity, post-emergence stem and leaf spray, greenhouse: piemarker control. The protocol:
as §1, §2
According to the above test method, part of the compounds of the formula I and KC are selected for activity test of controlling the piemarker. […]

The test system of another test is green bristlegrass. Nature of the test: Herbicidal activity, post-emergence stem and leaf spray, greenhouse: green bristlegrass control. The protocol: as §1, §2
According to the above test method, part of the compounds of the formula I and KC are selected for the activity test of controlling the green bristlegrass.

The mark [1] stands for this setting: dose 37.5 g a.i./hm2, post-emergence stem and leaf spray.
Where [2] appears, read: dose 150 g a.i./hm2, post-emergence stem and leaf spray.
The mark [3] stands for this setting: dose 600 g a.i./hm2, post-emergence stem and leaf spray.

Structures are written as SMILES.

With `Cc1c(C(=O)N(C(=O)C2=CCCCC2)c2nnnn2C)ccc(S(C)(=O)=O)c1OCC(F)(F)F` [Compound 2-13], the “Zinnia control activity (after emergence, control effect %)” value in the test with zinnia (dose 37.5 g a.i./hm^2), in the test with zinnia (dose 150 g a.i./hm^2) and in the test with zinnia (dose 600 g a.i./hm^2) was 100% throughout. Moreover, the “Barnyard grass control activity (after emergence, control effect %)” value came out at 80% in the test with barnyard grass (setting [1]), 100% in the test on barnyard grass (setting [2]) and 100% in the test on barnyard grass (setting [3]).

`COCc1c(S(C)(=O)=O)ccc(C(=O)N(C(=O)C2=CCCCC2)c2nnnn2C)c1Cl` [Compound 2-103]: the “Zinnia control activity (after emergence, control effect %)” value worked out at 90% in the test with zinnia (dose 37.5 g a.i./hm^2), 95% in the test with zinnia (dose 150 g a.i./hm^2) and 100% in the test on zinnia (dose 600 g a.i./hm^2). The “Piemarker control activity (after emergence, control effect %)” value is 95% in the test on piemarker (setting [1]), 100% in the test with piemarker (setting [2]) and 100% in the test on piemarker (setting [3]). The results for the “Green bristlegrass control activity (after emergence, control effect %)” value in the test on green bristlegrass (setting [1]), in the test on green bristlegrass (setting [2]) and in the test with green bristlegrass (setting [3]) were 80%, 90% and 95%, respectively. In addition, the “Barnyard grass control activity (after emergence, control effect %)” value in the test with barnyard grass (setting [1]) stood at 80%; in the test with barnyard grass (setting [2]), 90%; in the test with barnyard grass (setting [3]), 100%.

Regarding `Cc1c(S(C)(=O)=O)ccc(C(=O)N(C(=O)/C=C/c2ccccc2)c2nnnn2C)c1Cl` [Compound 1-19], the “Zinnia control activity (after emergence, control effect %)” value with zinnia (dose 37.5 g a.i./hm^2) stood at 95%; in the test on zinnia (dose 150 g a.i./hm^2) it was 95%; in the test on zinnia (dose 600 g a.i./hm^2) it was 100%. Also, the “Piemarker control activity (after emergence, control effect %)” value in the test on piemarker (setting [1]) was found to be 90%; in the test on piemarker (setting [2]) it was 90%; in the test on piemarker (setting [3]) it was 98%.

Take `Cn1nnnc1N(C(=O)/C=C/c1ccc2c(c1)OCO2)C(=O)c1ccc(C(F)(F)F)cc1S(C)(=O)=O` [Compound 1-8]: the “Zinnia control activity (after emergence, control effect %)” value in the test on zinnia (dose 37.5 g a.i./hm^2) is 90%; with zinnia (dose 150 g a.i./hm^2) it was 95%; with zinnia (dose 600 g a.i./hm^2) it was 100%. Also, the “Piemarker control activity (after emergence, control effect %)” value with piemarker (setting [1]), in the test on piemarker (setting [2]) and in the test on piemarker (setting [3]) was 100% throughout.

For the compound `Cn1nnnc1N(C(=O)C1=CCCCC1)C(=O)c1ccc(S(C)(=O)=O)cc1Cl` [Compound 2-269], the “Piemarker control activity (after emergence, control effect %)” value in the test with piemarker (setting [1]) stood at 90%; in the test with piemarker (setting [2]), 95%; in the test with piemarker (setting [3]), 100%. For the same compound, the results for the “Barnyard grass control activity (after emergence, control effect %)” value in the test with barnyard grass (setting [1]), in the test with barnyard grass (setting [2]) and with barnyard grass (setting [3]) were 80%, 90% and 95%, respectively.

For `Cc1c(S(C)(=O)=O)ccc(C(=O)N(C(=O)C2=CCCCC2)c2nnnn2C)c1Cl` [Compound 2-97], the “Zinnia control activity (after emergence, control effect %)” value in the test on zinnia (dose 37.5 g a.i./hm^2), with zinnia (dose 150 g a.i./hm^2) and in the test on zinnia (dose 600 g a.i./hm^2) was 100% throughout. Also, the “Piemarker control activity (after emergence, control effect %)” value in the test on piemarker (setting [1]) is 95%; in the test with piemarker (setting [2]), 100%; with piemarker (setting [3]), 100%. Further, the entries for the “Green bristlegrass control activity (after emergence, control effect %)” value in the test on green bristlegrass (setting [1]), with green bristlegrass (setting [2]) and in the test on green bristlegrass (setting [3]) were 80%, 95% and 100%, respectively. Also, the “Barnyard grass control activity (after emergence, control effect %)” value in the test on barnyard grass (setting [1]) turned out to be 90%; in the test on barnyard grass (setting [2]) it was 95%; in the test with barnyard grass (setting [3]), 100%.

Turning to `Cc1c(C(=O)N(C(=O)/C=C/c2ccccc2)c2nnnn2C)ccc(S(C)(=O)=O)c1OCC1CCCO1` (stereo not drawn) [Compound 1-100], the “Barnyard grass control activity (after emergence, control effect %)” value with barnyard grass (setting [1]), in the test on barnyard grass (setting [2]) and with barnyard grass (setting [3]) was 100% throughout.

Regarding `CCCOc1c(S(C)(=O)=O)ccc(C(=O)N(C(=O)/C=C/c2ccccc2)c2nnnn2C)c1C` [Compound 1-296], the “Barnyard grass control activity (after emergence, control effect %)” value in the test on barnyard grass (setting [1]), with barnyard grass (setting [2]) and in the test with barnyard grass (setting [3]) was 100% in each case.

For the compound `Cc1c(C(=O)N(C(=O)C2=CCCC2)c2nnnn2C)ccc(S(C)(=O)=O)c1OCC(F)(F)F` [Compound 2-15], the “Zinnia control activity (after emergence, control effect %)” value in the test on zinnia (dose 37.5 g a.i./hm^2), with zinnia (dose 150 g a.i./hm^2) and with zinnia (dose 600 g a.i./hm^2) was 100% throughout. The “Green bristlegrass control activity (after emergence, control effect %)” value in the test with green bristlegrass (setting [1]) is 90%; in the test with green bristlegrass (setting [2]) it was 100%; in the test with green bristlegrass (setting [3]), 100%. Further, the “Barnyard grass control activity (after emergence, control effect %)” value is given as 85% with barnyard grass (setting [1]), 100% in the test with barnyard grass (setting [2]) and 100% in the test with barnyard grass (setting [3]).

Take `COCCOc1c(S(C)(=O)=O)ccc(C(=O)N(C(=O)C2=CCCCC2)c2nnnn2C)c1C` [Compound 2-19]: the “Barnyard grass control activity (after emergence, control effect %)” value amounted to 90% in the test on barnyard grass (setting [1]), 100% in the test on barnyard grass (setting [2]) and 100% in the test with barnyard grass (setting [3]).

In the case of `COc1c(S(C)(=O)=O)ccc(C(=O)N(C(=O)/C=C/c2ccccc2)c2nnnn2C)c1C` [Compound 1-95], the “Zinnia control activity (after emergence, control effect %)” value in the test with zinnia (dose 37.5 g a.i./hm^2), in the test with zinnia (dose 150 g a.i./hm^2) and in the test on zinnia (dose 600 g a.i./hm^2) was 100% in each case.

Consider `COCc1c(S(C)(=O)=O)ccc(C(=O)N(C(=O)/C=C/c2ccccc2)c2nnnn2C)c1Cl` [Compound 1-24], for which the “Zinnia control activity (after emergence, control effect %)” value in the test with zinnia (dose 37.5 g a.i./hm^2), in the test with zinnia (dose 150 g a.i./hm^2) and in the test on zinnia (dose 600 g a.i./hm^2) was 100% throughout. Also, the “Piemarker control activity (after emergence, control effect %)” value in the test with piemarker (setting [1]), with piemarker (setting [2]) and in the test on piemarker (setting [3]) was 100% throughout. Besides, the “Barnyard grass control activity (after emergence, control effect %)” value in the test on barnyard grass (setting [1]) is given as 95%; in the test with barnyard grass (setting [2]), 95%; in the test with barnyard grass (setting [3]), 100%.

As for `COCc1c(S(C)(=O)=O)ccc(C(=O)N(C(=O)C2=CCCC2)c2nnnn2C)c1Cl` [Compound 2-105], the “Barnyard grass control activity (after emergence, control effect %)” value in the test on barnyard grass (setting [1]) is reported as 90%; with barnyard grass (setting [2]), 90%; with barnyard grass (setting [3]) it was 100%.

With `COCc1c(S(C)(=O)=O)ccc(C(=O)N(C(=O)C2CC=CC2)c2nnnn2C)c1Cl` [Compound 2-106], the “Zinnia control activity (after emergence, control effect %)” value in the test on zinnia (dose 37.5 g a.i./hm^2), with zinnia (dose 150 g a.i./hm^2) and in the test with zinnia (dose 600 g a.i./hm^2) was 100% in each case.

With `Cn1nnnc1N(C(=O)/C=C/c1ccccc1)C(=O)c1ccc(C(F)(F)F)cc1S(C)(=O)=O` [Compound 1-1], the “Zinnia control activity (after emergence, control effect %)” value in the test with zinnia (dose 37.5 g a.i./hm^2), in the test with zinnia (dose 150 g a.i./hm^2) and in the test with zinnia (dose 600 g a.i./hm^2) was 100% in each case. Besides, the “Piemarker control activity (after emergence, control effect %)” value with piemarker (setting [1]), in the test on piemarker (setting [2]) and in the test on piemarker (setting [3]) was 100% throughout.

On to `COCCOCc1c(S(C)(=O)=O)ccc(C(=O)N(C(=O)C2=CCCCC2)c2nnnn2C)c1Cl` [Compound 2-270], for which the results for the “Piemarker control activity (after emergence, control effect %)” value in the test with piemarker (setting [1]), with piemarker (setting [2]) and in the test with piemarker (setting [3]) were 90%, 98% and 100%, respectively. For the same compound, the results for the “Green bristlegrass control activity (after emergence, control effect %)” value in the test on green bristlegrass (setting [1]), with green bristlegrass (setting [2]) and in the test with green bristlegrass (setting [3]) were 90%, 95% and 98%, respectively. The “Barnyard grass control activity (after emergence, control effect %)” value was 90% with barnyard grass (setting [1]), 95% in the test on barnyard grass (setting [2]) and 100% in the test with barnyard grass (setting [3]).

The values above are taken from patent US12319663B2, “Alkene-containing amide compound and application thereof” (SHENYANG SINOCHEM AGROCHEMICALS R&D CO., LTD., priority 2019, dated 2025).
